Columns and labels:
[1] = pH-dependent decomposition to diazonium salts in buffers by NMR; type: physicochemical; settings: phosphate/citrate buffers pH 4-7, phosphate buffer pH 6-8
Procedure: (§1) For decomposition experiments, buffers were made to the appropriate pH in a 9:1 mix of H2O:D2O. These solutions were added to the compound being assayed such that the buffer capacity was at least 10 fold the concentration of the compound. Some experiments used 5 mg compound in 0.5 mL of buffer. These were immediately inserted into an NMR instrument and scans were taken at even time intervals to calculate the half-life of the compound based on integration.
As mentioned above, Compound 6c was reasonably stable in pure D20. Upon adjusting the pH to 5 with HCl, a rapid initial consumption of Compound 6c to Compound 7 (see FIG. 6E) and a benzenediazonium salt was noted. After this initial burst of reactivity, a slowing and apparent arresting of the reaction was noted. At this pH the hydronium was the limiting reagent. All future reactions were run in buffers with a buffer capacity sufficient to maintain a large excess of hydronium ions. The experiments were performed in 90:10 H2O:D2O buffered solutions to minimize considerations of pH vs. pD. The decomposition to diazonium salts and Compound 7 was measured as a function of pH in phosphate/citrate buffers from pH 4-7 and in a phosphate buffer from pH 6-8. All runs provided linear correlations of concentration and time, indicating a pseudo-zero order reaction (first order with respect to hydronium ion with a large excess of hydronium ions). […]

[2] = Stability in D2O / water in the dark by NMR; type: physicochemical
Procedure: as §1
To render the triazabutadiene water-soluble, methyl imidazole was alkylated with propane sultone to provide the Zwitterionic NHC precursor Compound 5a (see FIG. 6E). […] Compound 6a was highly colored, so its pH dependence was studied using UV/Vis. The reactions were not only pH-, but also scan-frequency dependent. […] Even in the dark it was unstable, but not in the diazonium-forming way. Both Compound 6b and a more hindered mesityl (Mes) substituted Compound 6c (see FIG. 6E) were synthesized to stabilize what was initially considered to be a rearrangement pathway that could be blocked by steric repulsion. […] It is not yet clear that the hypothesis of a simple rearrangement was correct. […]
As mentioned above, Compound 6c was reasonably stable in pure D20. […] The decomposition to diazonium salts and Compound 7 was measured as a function of pH in phosphate/citrate buffers from pH 4-7 and in a phosphate buffer from pH 6-8. […]

Cc1cc(C)c(-n2ccn(CCCS(=O)(=O)[O-])c2=NN=Nc2ccccc2)c(C)c1.[K+] [Compound 6c, Potassium 3-(3-mesityl-2-(phenyltriaz-2-en-1-ylidene)-2,3-dihydro-1H-imidazol-1-yl) propane-1-sulfonate]
centre of sigmoidal correlation between decomposition rate and buffer pH [1]: 6 pH
compound consumed after 24 hours ([2]; D2O, in the dark, room temperature, NMR): less than 10%
compound consumed after 6 hours ([2]; non-buffered 90:10 H2O:D2O solution): > 7%

— US10125105B2, “Triazabutadienes as cleavable cross-linkers” (ARIZONA BOARD OF REGENTS ON BEHALF OF THE UNIVERSITY OF …, priority 2014, dated 2018)
